Measured values published in ChEMBL document CHEMBL1201862, “PubChem BioAssay data set” (2004).
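Exposure lasted 48 hours, with cells grown in 96-well plates and compounds tested at five concentrations. The concentration for 50% growth inhibition is given as GI50.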 Active and inactive are the calls of the source. Rule as the data show it: active = GI50 up to about 1.1 µM and inactive = higher.

Key:
Experiment in all cases: NCI-60 cell line screen, 48 h
[1] = test system: 786-0
[2] = test system: A549
[3] = test system: ACHN
[4] = test system: CAKI-1
[5] = test system: CCRF-CEM
[6] = test system: COLO 205
[7] = test system: DU-145
[8] = test system: EKVX
[9] = test system: HCC 2998
[10] = test system: HCT-116
[11] = test system: HCT-15
[12] = test system: HL-60
[13] = test system: HOP-62
[14] = test system: HOP-92
[15] = test system: HT-29
[16] = test system: Hs-578T
[17] = test system: IGROV-1
[18] = test system: K562
[19] = test system: KM12
[20] = test system: LOX IMVI
[21] = test system: M14
[22] = test system: MCF7
[23] = test system: MDA-MB-231
[24] = test system: MDA-MB-435
[25] = test system: MDA-N
[26] = test system: MOLT-4
[27] = test system: Malme-3M
[28] = test system: NCI-H226
[29] = test system: NCI-H23
[30] = test system: NCI-H460
[31] = test system: NCI-H522
[32] = test system: NCI/ADR-RES
[33] = test system: OVCAR-3
[34] = test system: OVCAR-4
[35] = test system: OVCAR-5
[36] = test system: OVCAR-8
[37] = test system: PC-3
[38] = test system: RPMI-8226
[39] = test system: RXF 393
[40] = test system: SF-268
[41] = test system: SF-295
[42] = test system: SF-539
[43] = test system: SK-MEL-28
[44] = test system: SK-MEL-5
[45] = test system: SK-OV-3
[46] = test system: SN12C
[47] = test system: SNB-19
[48] = test system: SNB-75
[49] = test system: SR
[50] = test system: SW-620
[51] = test system: T47D
[52] = test system: TK-10
[53] = test system: U-251
[54] = test system: UACC-257
[55] = test system: UACC-62
[56] = test system: UO-31
[57] = test system: A498
[58] = test system: SK-MEL-2

Measured: GI50

CN(COC(=O)c1ccccc1)c1nc(N(C)COC(=O)c2ccccc2)nc(N(C)COC(=O)c2ccccc2)n1
inactive: [1] 11.4 µM | [2] > 100 µM | [3] 21.2 µM | [4] 57.7 µM | [5] > 100 µM | [6] > 100 µM | [7] > 100 µM | [8] > 83.6 µM | [9] > 100 µM | [10] 44.5 µM | [12] > 100 µM | [13] 14.7 µM | [14] 13.1 µM | [15] > 100 µM | [16] 22.4 µM | [17] 28.8 µM | [18] > 27.4 µM | [19] > 100 µM | [20] > 100 µM | [21] > 86.3 µM | [22] > 71.9 µM | [23] 15.7 µM | [24] > 100 µM | [25] > 100 µM | [26] > 100 µM | [27] > 100 µM | [28] 30.4 µM | [29] 41.5 µM | [30] > 69.5 µM | [31] 52.4 µM | [32] 50.1 µM | [33] > 84.1 µM | [34] 47.5 µM | [35] > 100 µM | [36] 39.4 µM | [37] > 100 µM | [38] > 100 µM | [39] 7.83 µM | [40] 21.8 µM | [41] 23.9 µM | [42] 12.2 µM | [43] > 100 µM | [44] > 100 µM | [45] > 65.2 µM | [46] > 100 µM | [47] 16.5 µM | [48] > 94.6 µM | [49] > 100 µM | [50] > 100 µM | [51] 28.8 µM | [52] 20.3 µM | [53] 20.2 µM | [54] > 91.4 µM | [55] > 60.7 µM | [56] > 83.9 µM
> 100 µM: [11]

Cn1c(=O)c(Br)c(C=O)n(CCO[N+](=O)[O-])c1=O
inactive: [1] 5.14 µM | [57] 18.2 µM | [2] 16.1 µM | [3] 3.71 µM | [5] 1.62 µM | [6] 5.92 µM | [7] 27.2 µM | [8] 2.78 µM | [9] 15.4 µM | [10] 3.78 µM | [12] 1.77 µM | [13] 21.6 µM | [14] 2.72 µM | [16] 31 µM | [18] 2.66 µM | [20] 2.14 µM | [21] 3.99 µM | [22] 1.97 µM | [23] 2.53 µM | [24] 5.42 µM | [25] 4.23 µM | [26] 1.87 µM | [28] 51.3 µM | [29] 5.7 µM | [30] 15.9 µM | [32] 1.74 µM | [35] 3.88 µM | [36] 2.52 µM | [37] 9.14 µM | [38] 2.26 µM | [40] 4.28 µM | [42] 7.76 µM | [43] 2.07 µM | [58] 3.59 µM | [44] 11.2 µM | [45] 18.5 µM | [46] 4.34 µM | [47] 26.2 µM | [48] 12.2 µM | [49] 2.16 µM | [50] 2.26 µM | [51] 1.87 µM | [52] 3.86 µM | [53] 3.02 µM | [55] 1.23 µM | [56] > 10 µM
4.83 µM: [11]

COc1ccc2c(c1)N(C(C)=O)CN1C(=O)CCC21 (configuration not stated)
inactive: [1] > 100 µM | [57] > 100 µM | [2] > 100 µM | [3] > 100 µM | [4] > 100 µM | [5] 41.7 µM | [6] > 100 µM | [7] > 100 µM | [8] > 100 µM | [9] > 100 µM | [10] > 100 µM | [12] 48.2 µM | [13] > 100 µM | [14] > 100 µM | [15] > 100 µM | [16] > 100 µM | [17] > 100 µM | [18] 79.6 µM | [19] > 100 µM | [20] > 100 µM | [21] > 100 µM | [22] > 100 µM | [23] > 100 µM | [24] > 100 µM | [25] > 100 µM | [26] 46 µM | [27] > 100 µM | [28] > 100 µM | [29] > 100 µM | [30] > 100 µM | [31] > 100 µM | [32] > 100 µM | [33] > 100 µM | [34] > 100 µM | [35] > 100 µM | [36] > 100 µM | [37] > 100 µM | [38] 49.3 µM | [39] > 100 µM | [40] > 100 µM | [41] > 100 µM | [42] > 100 µM | [43] > 100 µM | [58] > 100 µM | [44] > 100 µM | [45] > 100 µM | [46] > 100 µM | [47] > 100 µM | [48] > 100 µM | [50] > 100 µM | [51] > 100 µM | [52] > 100 µM | [53] > 100 µM | [54] > 100 µM | [55] > 100 µM | [56] > 100 µM
> 100 µM: [11]

COc1ccc2c(c1)nc1n2C(c2c(F)cccc2Cl)SC1 (configuration not stated)
active: [24] 0.703 µM | [27] 1.02 µM
3.03 µM: [11]
inactive: [1] 5.68 µM | [57] 5.89 µM | [2] 4.81 µM | [3] 20.8 µM | [4] 19.1 µM | [5] 3.1 µM | [6] 3.98 µM | [7] 1.49 µM | [8] 26.1 µM | [9] 4.2 µM | [10] 4.14 µM | [12] 1.26 µM | [14] > 37.3 µM | [15] 4.52 µM | [16] 1.69 µM | [17] 6.17 µM | [18] > 100 µM | [19] 2.76 µM | [20] 6.64 µM | [21] 3.9 µM | [22] 3.66 µM | [23] 3.49 µM | [25] 1.35 µM | [28] 4.75 µM | [29] 3.59 µM | [30] 3.68 µM | [32] 1.56 µM | [35] > 37.2 µM | [36] 3.92 µM | [40] 3.66 µM | [41] 2.74 µM | [42] 3.25 µM | [43] 5 µM | [44] 3.17 µM | [46] > 22.6 µM | [48] 1.68 µM | [51] 3.32 µM | [52] > 25.9 µM | [53] 5.08 µM | [54] 18.2 µM | [55] 7.26 µM | [56] > 20.2 µM

CCn1nc(-c2ccccc2)c2c1N(C)c1ccccc1-n1c(-c3ccccc3)nnc1-2
10.4 µM: [11]
inactive: [1] 16.3 µM | [57] 1.46 µM | [2] 13.3 µM | [3] 13.5 µM | [5] 18.8 µM | [6] 19.7 µM | [7] 16.1 µM | [9] 15.9 µM | [10] 13.1 µM | [12] > 10 µM | [13] 17.9 µM | [14] 16.3 µM | [16] 19 µM | [17] 19.9 µM | [18] 17.1 µM | [20] 16.6 µM | [21] 16 µM | [22] 5.45 µM | [23] 13.4 µM | [24] > 100 µM | [25] 15.1 µM | [26] > 10 µM | [28] 17.2 µM | [29] 14 µM | [30] 14.3 µM | [32] 14.9 µM | [35] 19.4 µM | [36] 20.9 µM | [37] 13.2 µM | [38] 9.68 µM | [40] 16.1 µM | [42] 22.5 µM | [43] 17.7 µM | [58] 17.3 µM | [44] 9.25 µM | [45] 18.9 µM | [46] 16.4 µM | [47] 15.9 µM | [48] 3.69 µM | [49] 14.4 µM | [50] 16.1 µM | [51] 4.63 µM | [52] 16 µM | [53] 15 µM | [55] 12.8 µM | [56] 14.2 µM
